This note sets out measurements from PubChem BioAssay AID651592 (Sanford-Burnham Center for Chemical Genomics, 2012).

Assay [1] can be described thus: inhibitors of NFkB activation in CF airway cells, SAR follow-up, KKLEB cells, panel, IL8 HTRF, NFkB-GFP (AID 651592).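 Also: immortalized cystic fibrosis airway epithelial KKLEB cells with an NF-kB GFP reporter.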 The settings on record: PAF/TNFa-induced NFkB-GFP / IL8 HTRF, CF-PAF assay.
The test system of assay [2] is IL8. The assay is described as above. The settings on record: PAF/TNFa-induced NFkB-GFP / IL8 HTRF, mean of runs, mean IC50 across panel replicates.
The target of assay [3] is Interleukin-8 (Homo sapiens) (UniProt P10145). The assay is described as above. The settings on record: PAF/TNFa-induced NFkB-GFP / IL8 HTRF.
Setting [4] is: mean of runs, mean IC50 across panel replicates.

The structures appear in SMILES notation. Some results are limits rather than exact numbers.

Interleukin-8 (Homo sapiens), sequence (P10145 whole entry, looked up): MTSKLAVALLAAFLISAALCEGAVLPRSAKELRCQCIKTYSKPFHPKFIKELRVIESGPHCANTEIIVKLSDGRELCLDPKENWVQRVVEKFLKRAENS

For `O=C(Nc1ccc(N2CCN(C(=O)c3ccccc3)CC2)cc1)c1cc(Br)cc(Br)c1`, the half-maximal inhibitory concentration (IC50) in assay [1] (setting [4]), in assay [1] (run 1), in assay [1] (run 2), in assay [1] (run 3), in assay [1] (run 4) and in assay [1] (run 5) was more than 66 µM each time. For the same compound, the half-inhibitory concentration (IC50) in assay [1] (run 6) is more than 66 µM; in assay [2] (PAF-induced), more than 66 µM; in assay [2] (TNFa-induced) it was more than 66 µM; in assay [3] (IL8, PAF-induced, run 1) it was more than 66 µM; in assay [3] (IL8, PAF-induced, run 2), more than 66 µM; in assay [3] (IL8, PAF-induced, run 3) it was more than 66 µM. Also, the IC50 is more than 66 µM in assay [3] (IL8, PAF-induced, run 4); more than 66 µM in assay [3] (IL8, PAF-induced, run 5); more than 66 µM in assay [3] (IL8, PAF-induced, run 6); more than 66 µM in assay [3] (IL8, TNFa-induced, run 1); more than 66 µM in assay [3] (IL8, TNFa-induced, run 2); more than 66 µM in assay [3] (IL8, TNFa-induced, run 3). Further, the half-inhibitory concentration (IC50) is more than 66 µM in assay [3] (IL8, TNFa-induced, run 4); more than 66 µM in assay [3] (IL8, TNFa-induced, run 5); more than 66 µM in assay [3] (IL8, TNFa-induced, run 6).

With `O=C(Nc1ccc(N2CCN(C(=O)c3ccccc3)CC2)cc1)c1cccc(Br)c1`, the 50% inhibitory concentration (IC50) in assay [1] (setting [4]) came to 20.5 µM; in assay [1] (run 1), 14.9 µM; in assay [1] (run 2), 16.6 µM; in assay [1] (run 3) it was 19.2 µM; in assay [1] (run 4), 20.7 µM; in assay [1] (run 5), 23.1 µM. Moreover, the IC50 is 28.5 µM in assay [1] (run 6); 47.7 µM in assay [2] (PAF-induced); 47.9 µM in assay [2] (TNFa-induced); more than 66 µM in assay [3] (IL8, PAF-induced, run 1); 4.44 µM in assay [3] (IL8, PAF-induced, run 2); 17.8 µM in assay [3] (IL8, PAF-induced, run 3). In addition, the half-maximal inhibitory concentration (IC50) in assay [3] (IL8, PAF-induced, run 4) was more than 66 µM; in assay [3] (IL8, PAF-induced, run 5) it was more than 66 µM; in assay [3] (IL8, PAF-induced, run 6) it was more than 66 µM; in assay [3] (IL8, TNFa-induced, run 1), more than 66 µM; in assay [3] (IL8, TNFa-induced, run 2) it was more than 66 µM; in assay [3] (IL8, TNFa-induced, run 3), 14.9 µM. Further, the half-maximal inhibitory concentration (IC50) is more than 66 µM in assay [3] (IL8, TNFa-induced, run 4); more than 66 µM in assay [3] (IL8, TNFa-induced, run 5); 8.25 µM in assay [3] (IL8, TNFa-induced, run 6).
